Experimental data: ChEMBL document CHEMBL1201862, “PubChem BioAssay data set” (2004)
Active and inactive are the calls of the source. Unless noted, the calls are words filed in the database; no cut-off is given here.

Assays:
Assay type in all cases: functional
[1] = biological target: Muscarinic acetylcholine receptor M1 (Rattus norvegicus, UniProt P08482); assay: concentration-dependent potentiation of ACh at M1 – cell-based, calcium mobilization, CHO-K1, ACh EC20, dose response (AID 2425)
[2] = biological target: T1, Ion channel NompC (Danio rerio, UniProt Q7T1G6); assay: Late stage counterscreen for the probe development effort to identify selective agonists of the Transient Receptor Potential Channels 3 (TRPML3): fluorescence-based cell-based dose response assay for TRPN1 agonists.
T1 sequence (Q7T1G6 whole entry): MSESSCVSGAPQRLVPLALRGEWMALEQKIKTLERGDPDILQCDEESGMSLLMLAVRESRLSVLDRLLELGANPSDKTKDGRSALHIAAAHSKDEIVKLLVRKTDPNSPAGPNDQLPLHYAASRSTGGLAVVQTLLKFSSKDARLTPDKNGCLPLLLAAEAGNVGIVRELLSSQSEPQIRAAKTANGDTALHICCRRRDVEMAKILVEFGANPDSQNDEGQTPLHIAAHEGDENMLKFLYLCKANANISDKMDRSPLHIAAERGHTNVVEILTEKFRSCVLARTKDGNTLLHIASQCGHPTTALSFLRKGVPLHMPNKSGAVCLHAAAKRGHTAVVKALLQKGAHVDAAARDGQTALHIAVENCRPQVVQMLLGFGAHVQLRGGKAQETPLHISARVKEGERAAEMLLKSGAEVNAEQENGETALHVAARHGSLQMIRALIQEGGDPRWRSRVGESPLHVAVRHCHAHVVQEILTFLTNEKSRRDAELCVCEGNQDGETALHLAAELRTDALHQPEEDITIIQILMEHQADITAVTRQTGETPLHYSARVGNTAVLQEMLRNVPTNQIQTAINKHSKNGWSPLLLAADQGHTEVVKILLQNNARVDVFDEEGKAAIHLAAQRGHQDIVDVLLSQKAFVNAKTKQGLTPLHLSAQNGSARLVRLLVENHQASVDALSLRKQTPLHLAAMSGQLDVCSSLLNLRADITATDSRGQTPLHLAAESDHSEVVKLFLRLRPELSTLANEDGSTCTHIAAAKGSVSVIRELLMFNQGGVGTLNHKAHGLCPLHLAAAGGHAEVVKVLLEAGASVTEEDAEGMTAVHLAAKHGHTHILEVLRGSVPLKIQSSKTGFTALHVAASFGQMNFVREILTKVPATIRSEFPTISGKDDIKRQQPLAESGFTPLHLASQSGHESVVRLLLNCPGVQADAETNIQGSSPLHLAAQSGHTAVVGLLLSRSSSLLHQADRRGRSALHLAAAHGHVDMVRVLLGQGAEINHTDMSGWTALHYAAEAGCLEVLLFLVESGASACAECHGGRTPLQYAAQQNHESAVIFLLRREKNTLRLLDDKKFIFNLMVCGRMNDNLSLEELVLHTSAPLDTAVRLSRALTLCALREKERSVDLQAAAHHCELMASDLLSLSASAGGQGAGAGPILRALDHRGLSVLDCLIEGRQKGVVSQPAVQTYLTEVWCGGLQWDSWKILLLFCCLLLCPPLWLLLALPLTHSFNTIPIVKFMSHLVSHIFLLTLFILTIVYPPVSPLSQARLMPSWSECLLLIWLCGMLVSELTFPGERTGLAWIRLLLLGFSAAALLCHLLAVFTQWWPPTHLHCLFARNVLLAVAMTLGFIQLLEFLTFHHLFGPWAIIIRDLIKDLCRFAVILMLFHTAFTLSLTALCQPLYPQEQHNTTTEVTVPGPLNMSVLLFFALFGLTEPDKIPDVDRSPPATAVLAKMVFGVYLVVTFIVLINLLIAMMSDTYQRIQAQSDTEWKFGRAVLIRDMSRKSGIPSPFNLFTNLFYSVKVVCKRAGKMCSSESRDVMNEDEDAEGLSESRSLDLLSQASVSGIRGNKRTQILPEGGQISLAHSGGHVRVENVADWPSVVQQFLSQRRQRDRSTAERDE

[3] = biological target: T1, Ion channel NompC; assay: Fluorescence counterscreen assay for TRPML3 agonists: dose response cell-based high-throughput screening assay to identify agonists of the transient receptor potential channel N1 (TRPN1). [Related pubchem assays: 1526, 1424, 1448 ]
[4] = biological target: T2, Corticotropin-releasing factor receptor 2/Corticotropin-releasing factor-binding protein (Homo sapiens, UniProt P24387+Q13324); assay: activators of CRF receptor 2 with binding protein – uHTS hits, confirmation (AID 602473); details: read-out: EC50_Mean
T2 sequence (Q13324 whole entry): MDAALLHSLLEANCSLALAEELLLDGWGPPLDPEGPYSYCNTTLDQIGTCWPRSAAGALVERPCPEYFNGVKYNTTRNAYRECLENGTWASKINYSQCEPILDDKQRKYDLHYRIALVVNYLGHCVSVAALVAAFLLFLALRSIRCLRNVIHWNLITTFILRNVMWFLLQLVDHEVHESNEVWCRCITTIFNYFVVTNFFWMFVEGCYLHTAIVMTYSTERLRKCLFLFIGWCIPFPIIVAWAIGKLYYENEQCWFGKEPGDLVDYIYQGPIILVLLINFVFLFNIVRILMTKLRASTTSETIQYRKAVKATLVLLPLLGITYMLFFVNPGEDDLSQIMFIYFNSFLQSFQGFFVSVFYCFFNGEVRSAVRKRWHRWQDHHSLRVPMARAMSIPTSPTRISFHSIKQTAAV
T2 sequence (P24387 whole entry): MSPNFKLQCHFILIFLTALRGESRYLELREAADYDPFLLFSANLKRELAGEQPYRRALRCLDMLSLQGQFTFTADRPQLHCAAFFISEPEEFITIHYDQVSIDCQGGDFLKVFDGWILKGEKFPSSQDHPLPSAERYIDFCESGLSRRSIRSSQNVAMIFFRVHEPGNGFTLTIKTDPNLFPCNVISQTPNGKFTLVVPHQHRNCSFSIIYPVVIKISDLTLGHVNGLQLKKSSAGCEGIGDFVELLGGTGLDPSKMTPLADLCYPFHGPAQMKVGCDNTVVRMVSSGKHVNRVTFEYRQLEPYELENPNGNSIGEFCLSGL

[5] = biological target: T3, Mucolipin-3 (Homo sapiens, UniProt Q8TDD5); assay: Dose response cell-based high-throughput screening assay for agonists of the transient receptor potential channel ML3 (TRPML3). [Related pubchem assays: 1526, 1424, 1448 ]
T3 sequence (Q8TDD5 whole entry): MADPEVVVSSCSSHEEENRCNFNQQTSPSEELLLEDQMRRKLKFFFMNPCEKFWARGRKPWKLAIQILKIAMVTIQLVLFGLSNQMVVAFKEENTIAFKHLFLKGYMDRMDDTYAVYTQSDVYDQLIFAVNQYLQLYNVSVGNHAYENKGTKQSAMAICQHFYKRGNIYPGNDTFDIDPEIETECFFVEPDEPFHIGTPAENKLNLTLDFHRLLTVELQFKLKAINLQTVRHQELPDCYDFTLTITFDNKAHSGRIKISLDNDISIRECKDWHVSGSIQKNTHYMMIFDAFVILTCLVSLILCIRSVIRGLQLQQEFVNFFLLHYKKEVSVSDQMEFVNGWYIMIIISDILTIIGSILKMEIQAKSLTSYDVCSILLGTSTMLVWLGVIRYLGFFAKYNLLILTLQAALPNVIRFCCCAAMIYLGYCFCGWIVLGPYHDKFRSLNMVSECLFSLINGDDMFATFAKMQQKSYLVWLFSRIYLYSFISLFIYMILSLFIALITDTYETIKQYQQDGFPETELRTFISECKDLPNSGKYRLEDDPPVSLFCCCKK

[6] = biological target: T3, Mucolipin-3; assay: human mucolipin-3 activators, concentration-response – cell-based, calcium fluorescence, dose response (AID 2510)
[7] = biological target: T4, NADPH oxidase 1 (Homo sapiens, UniProt Q9Y5S8); assay: Late-stage luminescence-based cell-based dose response assay to identify inhibitors of NADPH oxidase 1 (NOX1): Synthesized analogs 2.
T4 sequence (Q9Y5S8 whole entry): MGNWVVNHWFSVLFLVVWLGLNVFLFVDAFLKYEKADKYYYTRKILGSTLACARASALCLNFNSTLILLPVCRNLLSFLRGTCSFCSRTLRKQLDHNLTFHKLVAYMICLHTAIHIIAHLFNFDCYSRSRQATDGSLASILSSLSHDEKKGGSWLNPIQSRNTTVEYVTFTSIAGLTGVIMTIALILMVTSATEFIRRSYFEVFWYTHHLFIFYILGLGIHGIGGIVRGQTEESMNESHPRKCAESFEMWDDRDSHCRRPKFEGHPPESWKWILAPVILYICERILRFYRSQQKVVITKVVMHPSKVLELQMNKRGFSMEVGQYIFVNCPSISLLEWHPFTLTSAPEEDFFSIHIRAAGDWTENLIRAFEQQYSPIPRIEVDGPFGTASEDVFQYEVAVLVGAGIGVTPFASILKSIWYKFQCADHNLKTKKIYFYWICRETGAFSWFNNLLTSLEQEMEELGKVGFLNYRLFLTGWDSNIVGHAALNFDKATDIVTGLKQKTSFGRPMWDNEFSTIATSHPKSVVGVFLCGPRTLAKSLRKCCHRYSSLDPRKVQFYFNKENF

Chain of Muscarinic acetylcholine receptor M1 (P08482 whole entry): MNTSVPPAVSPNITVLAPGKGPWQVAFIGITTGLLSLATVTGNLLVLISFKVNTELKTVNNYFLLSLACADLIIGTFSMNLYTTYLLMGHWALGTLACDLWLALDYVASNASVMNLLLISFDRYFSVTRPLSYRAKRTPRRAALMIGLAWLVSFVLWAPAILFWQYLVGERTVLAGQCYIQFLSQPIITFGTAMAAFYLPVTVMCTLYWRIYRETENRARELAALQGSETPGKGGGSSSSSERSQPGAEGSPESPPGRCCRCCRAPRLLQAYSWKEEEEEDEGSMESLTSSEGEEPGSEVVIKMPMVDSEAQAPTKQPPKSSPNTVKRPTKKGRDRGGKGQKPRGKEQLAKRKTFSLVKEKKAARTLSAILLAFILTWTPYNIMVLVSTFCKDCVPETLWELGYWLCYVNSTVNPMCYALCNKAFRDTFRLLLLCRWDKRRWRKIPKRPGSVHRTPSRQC

**Q.** How did the EC50 [1] turn out when `Cn1cc(-c2cc(F)c(CN3C(=O)C(=O)c4ccccc43)c(F)c2)cn1` was run?
**A.** The EC50 was 0.885 µM (active).

**Q.** `CC1CCN(S(=O)(=O)c2ccc(C(C)C)cc2)CC1` was tested. Which EC50 [2] did it give?
**A.** Its EC50 is > 29.9 µM (not active).

**Q.** And the EC50 [3]?
**A.** Its EC50 is > 29.9 µM (not active).

**Q.** What about the EC50 [4] of the same compound?
**A.** The EC50 was > 53 µM (inactive).

**Q.** And the EC50 [5]?
**A.** The EC50 was 1.33 µM (active).

**Q.** And the EC50 [6]?
**A.** Its EC50 is 1.12 µM (active).

**Q.** For `CN1c2ccccc2Sc2cc(Br)ccc21`, which IC50 [7] is on record?
**A.** Its IC50 is > 50 µM (not active).
